Data on 79 molecules can be found in PubChem BioAssay AID652101 (NMMLSC, 2013).

Calls of active or inactive are those of the source.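 Rule for the calls: active = at least 15% inhibition at the top concentration together with an EC50 under 10 microM; inactive = the rest.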

The first experiment can be described thus: potency against LAMP-1 externalization in TALL-104 – TALL-104 cells, flow cytometry, CherryPick01, dose response (AID 652101).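 Note: 0% = stimulated DMSO control and 100% = unstimulated control wells.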 To be noted: TALL-104 lytic granule exocytosis, LAMP-1 flow cytometry; at 15.1 µM (top of the series).
Consider `COC(=O)c1ccc(NC(=O)CSc2nc3ccc(N4C(=O)C5C6C=CC(C6)C5C4=O)cc3s2)cc1` (centres undefined), for which the inhibition is 92.5% (inactive).
On the same count and under the same terms, next, `CCOC(=O)[C@]12Cc3cc(Cl)ccc3[C@H]1N(C1CCCCC1)C(=O)c1cc(OC)ccc12`: 102% (inactive).

Still in this experiment, the particulars now being: TALL-104 lytic granule exocytosis, LAMP-1 flow cytometry; at 15.1 µM (top of the series); stimulated with 1 µM thapsigargin, 50 nM PMA.
Regarding `Cc1cc(F)ccc1S(=O)(=O)Nc1ccccc1C(=O)Nc1ccccc1-c1nc2ccccc2[nH]1`, the inhibition is 106% (inactive).
Regarding `CC(C)(c1ccccc1)c1ccc(OCC(O)CNC2CCN(Cc3ccccc3)CC2)cc1` (centres undefined), the inhibition is 31.5% (inactive).
The same measure, in the same setting: the figure for `CCCCC[C@@H](C)N1C[C@H](COCc2ccccc2)Oc2cc(N3CC[C@@H](N(C)C)C3)ccc2S1(=O)=O` is 65% (inactive).
For the molecule `O=C(Nc1nc(-c2ccccc2)cs1)c1ccc2c(=O)n3c(nc2c1)CCCCC3`, the inhibition was 74.2% (inactive).
In the case of `CCN1CCN(Cc2ccc(NC(=O)c3cc(NC(=O)C(=O)c4c[nH]c5ccccc45)cc(OC)c3)cc2C(F)(F)F)CC1`, the inhibition is 81.8% (inactive).
On to `c1ccc(COc2ccc(-c3cc4nc(NCCCn5ccnc5)ccn4n3)cc2)cc1`, for which the inhibition is 106% (inactive).
Take `CCc1ccc2nc(N(CCCN(C)C)C(=O)c3ccc(S(=O)(=O)N4CCc5ccccc5C4)cc3)sc2c1`: the inhibition was 81.8% (inactive).
Same read-out and setting: next, `CC(=O)Nc1ccc2sn(-c3ccccc3)c(=O)c2c1`: 81.8% (inactive).
For `CCc1ccc(CNC(=O)C2CCCN(c3nnc(C)c4c(C)n(-c5ccccc5)nc34)C2)cc1` (centres undefined), the inhibition is 97.2% (inactive).
The same measure, in the same setting: next, `Cc1cncn1CCc1nc2c3ccccc3nc(SCC(=O)Nc3cccc(Cl)c3)n2n1`: 104% (inactive).
Turning to `Cc1ccc(-c2nn(-c3ccccc3)cc2CN(Cc2ccccc2)C(=O)c2ccco2)o1`, the inhibition is 105% (inactive).
On the same count and under the same terms, the figure for `OCCN1CCN(CC(O)COc2ccc(C34CC5CC(CC(C5)C3)C4)cc2)CC1` (centres undefined) is 85.8% (inactive); for `COC(=O)[C@]12CCCCC=C1N(Cc1cccc3ccccc13)C(=O)[C@H](CC(=O)NCc1ccc(OC)c(OC)c1)C2` it is 108% (inactive); for `O=C(CCN1CCc2ccccc2C(c2ccccc2)C1)c1ccc2c(c1)OCCO2` (centres undefined) it is 101% (inactive).
`COc1ccc2[nH]c3c(N4CCc5ccccc5C4)ncnc3c2c1`: the inhibition was 89.2% (inactive).
The same measure, in the same setting: next, `O=CNc1cc(-c2ccsc2)cn2c(-c3ccccc3)cnc12`: 105% (inactive); `CCOc1ccc(-c2cc(C(=O)NCCCn3ccnc3)c3cc(Br)ccc3n2)cc1`: 25.6% (inactive); `c1ccc(CCNc2ccnc3cc4ccccc4cc23)cc1`: 90.2% (inactive).
As for `C=CCNc1nc(NCc2ccc(N(C)C)cc2)c2sc(-c3ccccc3)cc2n1`, the inhibition is -13.9% (inactive).
Take `COc1cc2c(cc1OC)C(c1ccc(-c3ccc(Cl)c(Cl)c3)o1)=NCC2`: the inhibition was 88.4% (inactive).
As for `CN(C)CCC(=O)c1ccc2c(c1)OCO2`, the inhibition was 103% (inactive).
For `Cc1ccc(-c2nn(-c3ccccc3)cc2CNCc2ccccc2)cc1`, the inhibition was 99.5% (inactive).
On the same count and under the same terms, next, `O=c1c2cc(F)ccc2sn1-c1ccccc1Cl`: 95.2% (inactive); `COc1ccc(N(CC(=O)NCCSc2ccccn2)S(=O)(=O)c2ccccc2)c(OC)c1`: -7.92% (inactive); `CCOc1ccccc1CNC(=O)C1CCN(c2nnc(C)c3c(C)n(-c4ccc(C)cc4)nc23)CC1`: 59.4% (inactive).
On to `O=C1OC(c2ccccc2)(c2cc(Br)ccc2O)c2ccccc21` (centres undefined), for which the inhibition was 109% (inactive).
Still for that read-out and setting: next, `Oc1ccccc1Nc1nc(NCc2ccco2)c2ccccc2n1`: 107% (inactive); `COc1cc(-c2coc3c(C(=O)NCc4ccc(OC)c(OC)c4)cccc23)ccc1O`: 104% (inactive); `CC(=O)Nc1cc(-c2ccccc2F)cn2c(-c3ccccc3)cnc12`: 106% (inactive).
Same read-out and setting: the figure for `Nc1c(C(=O)NCc2ccc(F)cc2)c2nc3ccccc3nc2n1CCCN1CCOCC1` is 72.5% (inactive); for `Brc1ccccc1C1Nc2cccc3cccc(c23)N1` it is -2.38% (inactive).
In the case of `O=C1ON=C(c2ccccc2)/C1=C/c1ccc(-c2ccccc2[N+](=O)[O-])o1`, the inhibition was 102% (inactive).
Turning to `Cn1cncc1C#Cc1c(-c2ccc(S(C)(=O)=O)cc2)sc2ccccc12`, the inhibition was 102% (inactive).
Same read-out and setting: the figure for `CC(=O)Nc1ccc2c(=O)n(-c3ccccc3)sc2c1` is 67.8% (inactive); for `COc1ccc(Cl)c(-c2cc(C(=O)NCc3ccc(C(F)(F)F)cc3)[nH]n2)c1` it is 103% (inactive); for `CSc1cccc(NC(=S)N(CCCN2CCCC2)Cc2cccn2Cc2ccc(Cl)cc2)c1` it is 65.2% (inactive).
Same read-out and setting: the figure for `Cn1c(=O)c(NC2CCCCC2)c2c3c(cccc31)C(=O)c1ccccc1-2` is -4.68% (inactive).
Same read-out and setting: the figure for `O=C(CCN1CCc2ccccc2CC1)c1ccc2c(c1)OCCO2` is 73.6% (inactive).
As for `COc1ccc(-c2cc(NC=O)c3ncc(-c4ccccc4)n3c2)cc1OC`, the inhibition was 89.8% (inactive).
Take `CCOc1ccc(Cl)cc1-c1cc(C(=O)NCc2cccs2)[nH]n1`: the inhibition was 79.8% (inactive).
As for `Cc1ccc(Cl)cc1-c1cc(C(=O)NCc2ccc(C(F)(F)F)cc2)[nH]n1`, the inhibition is 103% (inactive).
The same measure, in the same setting: next, `CCOc1ccc2nc(N(CCCN(C)C)C(=O)c3ccc(S(=O)(=O)N4CCc5ccccc5C4)cc3)sc2c1`: 37% (inactive); `O=[N+]([O-])c1ccc2nc(/C=C/c3ccc(Cl)cc3)[nH]c2c1`: 98.6% (inactive).
Regarding `CCOCCCNC(=S)N1CCCN(c2nc3c(C)c(C)ccc3cc2C#N)CC1`, the inhibition is 83.8% (inactive).
On the same count and under the same terms, next, `CCCCNc1c(-c2ccc(OC)c(SC3CCCCC3)c2)nc2ccc(C)cn12`: 103% (inactive).
`O=C(Nc1nc2ccccc2n1CCN1CCOCC1)c1ccc(COc2ccccc2Br)o1`: the inhibition was 102% (inactive).
Consider `Cc1ccc2nc(-c3ccc(NC(=S)NC4CC(C)(C)NC(C)(C)C4)cc3)sc2c1`, for which the inhibition was 5.48% (inactive).
For `CN1CCN(c2ccc(NC(=O)c3ccc(-c4ccc(Cl)cc4)o3)cc2)CC1`, the inhibition was 97.9% (inactive).
Still for that read-out and setting: the figure for `CCOC(=O)c1ccc(NC(=O)c2ccc(C)c(S(=O)(=O)N3CCOCC3)c2)cc1` is 102% (inactive); for `OC(CNCC(c1ccc(Cl)cc1Cl)c1c[nH]c2ccccc12)c1ccccc1` (centres undefined) it is 81.7% (inactive); for `COC(=O)c1c(NC(=O)c2ccc(C(=O)c3ccccc3)cc2)sc2c1CC(C)(C)NC2(C)C` it is 90.2% (inactive).
Same read-out and setting: the figure for `COc1ccc2sc(N(CCCN(C)C)C(=O)c3ccc(S(=O)(=O)N4CCc5ccccc5C4)cc3)nc2c1` is 50% (inactive); for `N#Cc1c(NC(=O)c2ccc(Br)o2)n(-c2ccccc2)c2nc3ccccc3nc12` it is -12.1% (inactive).
In the case of `CCOC(=O)c1c(CSc2ccccc2)n(C)c2cc(Br)c(O)c(CN(C)C)c12`, the inhibition was 20.5% (inactive).
On the same count and under the same terms, next, `COc1ccc([N+](=O)[O-])cc1Nc1c2ccccc2nc2ccccc12`: 79.8% (inactive); `Cc1ccc2c3c(cccc13)-c1ccccc1C2=O`: 4.2% (inactive); `COc1ccc(C2CC(c3cccs3)=NN2c2nc(C)c(C(C)=O)s2)cc1OC` (centres undefined): 2.08% (inactive).
Still for that read-out and setting: the figure for `CCOC(=O)c1c(C)oc2c1c(C(c1cccnc1)N1CCOCC1)c(O)c1ccccc12` (centres undefined) is 95% (inactive); for `OC1(c2cccc(C(F)(F)F)c2)CCN(c2ncnc3c2[nH]c2ccc(F)cc23)CC1` it is 107% (inactive); for `O=C(Nc1ccc2nc(-c3cccs3)c(-c3cccs3)nc2c1)NC1CC1` it is 68.3% (inactive).
Same read-out and setting: the figure for `Cc1ccc(C(=O)N/C(=C\c2ccc(-c3ccc(Br)cc3)o2)C(=O)NCCCN(C)C)cc1` is -10.6% (inactive); for `Cc1cc(C(=O)CSc2nc3ccccc3[nH]2)c(C)n1CC1CCCO1` (centres undefined) it is 89.3% (inactive); for `COCCNc1nc(NCc2cccc(OC)c2)c2sc(-c3ccccc3)cc2n1` it is 105% (inactive).
Take `N#Cc1ccc(NC(=O)Nc2ccc(Oc3ccc(NC(=O)Nc4ccc(C#N)cc4)cc3)cc2)cc1`: the inhibition is 33.8% (inactive).
As to `Oc1ccccc1Nc1nc(NCc2ccccc2)c2ccccc2n1`, the inhibition was 90.6% (inactive).
For `CC(C)c1ccccc1OCC(O)CN(CC(O)COc1cccc2ccccc12)C(C)C` (centres undefined), the inhibition was 101% (inactive).
The same measure, in the same setting: the figure for `CC1(C(=O)OCC(=O)Nc2nc(-c3ccc(F)c(F)c3)cs2)CC1(Cl)Cl` (centres undefined) is 95% (inactive); for `COC(=O)c1ccc(CCc2cc(O)c(Br)cc2O)cc1` it is 108% (inactive).
On the same count and under the same terms, next, `CCOC(=O)c1c(NC(C)=O)sc2c(OCC(O)CN(CC)CC)c(Br)ccc12` (centres undefined): 88.2% (inactive); `O=C(Nc1nc2ccc(SC(F)F)cc2s1)c1ccc(NS(=O)(=O)c2ccc(F)c(F)c2)cc1`: 105% (inactive).
With `O=c1c2ccc(F)cc2sn1-c1ccccc1`, the inhibition was 75.9% (inactive).
`CN(c1ccccc1)S(=O)(=O)c1cccc(C(=O)NCCc2c[nH]c3ccccc23)c1`: the inhibition was 42.1% (inactive).
Same read-out and setting: next, `CN1CCN(c2cc(-c3ccccc3)nc3cc(-c4ccc(F)cc4)nn23)CC1`: 61.3% (inactive); `NCCc1c(-c2ccccc2)n(-c2ccccc2)c2ccccc12`: 68.2% (inactive).
As for `Cc1c(C(=O)OCC(=O)Nc2cccc(S(N)(=O)=O)c2)oc2c1ccc1ccccc12`, the inhibition was 104% (inactive).
On the same count and under the same terms, next, `Cn1c(=O)c(N)c2c3c(c(Br)ccc31)C(=O)c1ccccc1-2`: 1.57% (inactive).
In the case of `CCOC(=O)c1nnc(-c2ccccc2)nc1Sc1ccccc1Cl`, the inhibition was 66.7% (inactive).
